Experimental data from EP0415303B1, “Pyrido [2,3-b][1,5]benzoxazepin (and thiazepin)-5(6H)-ones and -thiones and their use in the prevention or treatment of HIV infection” (BOEHRINGER INGELHEIM PHARMACEUTICALS INC., priority 1989, dated 1991).

Tests used:
HIV-1 RT = target: T1, HIV-1 RT (Human immunodeficiency virus type 1 group M subtype B, UniProt P03367); assay: Reverse Transcriptase (RT) Assay: inhibition of RNA-dependent DNA polymerase activity; format: biochemical; set-up: RT Inhibition % @ 10 »g/ml: tested at 10 µg/ml; conditions: for RT Inhibition % @ 10 »g/ml: poly r(C)/oligo d(G) template, ³H-dGTP, 60 minutes at room temperature; for inhibition at 1 µM: compound at 1 »M (footnote *), read-out: RT Inhibition % (* % inh. @ 1 »M)
T1 construct: Reverse transcriptase enzyme from the LAV strain of Human Immunodeficiency Virus (HIV-1) (1) was isolated from the bacterial strain JM109; made in house; host or cells: E. coli JM109, clone pBRTprtl+ in vector pIBI21 (lac promoter, IPTG induction)
Description: Utilizing the Reverse Transcriptase (RT) Assay described below, compounds can be tested for their ability to inhibit the RNA-dependent DNA polymerase activity of HIV-1 RT. Certain specific compounds described in the Examples which appear below, were so tested.
Among the enzymes for which Human Immunodeficiency Virus (HIV-1) encodes is a reverse transcriptase (1), so-named because it transcribes a DNA copy from an RNA template. This activity can be quantitatively measured in a cell-free enzyme assay, which has been previously described (2), and is based upon the observation that reverse transcriptase is able to use a synthetic template [poly r(C) primed with oligo d(G)] to transcribe a radio-labelled, acid-precipitable DNA strand utilizing ³H-dGTP as a substrate.
Reverse transcriptase enzyme from the LAV strain of Human Immunodeficiency Virus (HIV-1) (1) was isolated from the bacterial strain JM109 (3) expressing the DNA clone pBRTprtl+ (2) which is under the control of the lac promotor in the expression vector pIBI21 (4). An overnight culture grown in 2XYT medium (37°C, 225 rpm) (5) supplemented with 100 »g/ml ampicillin for positive selection is inoculated at a 1:40 dilution into M9 medium supplemented with 10»g/ml thiamine, 0.5% casamino acids, and 50 »g/ml ampicillin (5). The culture is incubated (37°C, 225 rpm) until it reaches an OD540 of 0.3-0.4. At that time the repressor inhibitor IPTG (isopropyl β-D-thiogalactopyranoside) is added to 0.5mM, and the mixture is incubated for 2 additional hours. Bacteria are pelleted, resuspended in a 50mM Tris, 0.6mM EDTA, 0.375M NaCl buffer and digested by the addition of lysozyme (1mg/ml) for 30 minutes on ice. The cells are lysed by the addition of 0.2% NP-40 and brought to 1M NaCl.
After removal of the insoluble debris by centrifugation, the protein is precipitated by the addition of 3 volumes of saturated aqueous ammonium sulfate. The enzyme is pelleted, resuspended in RT buffer (50mM Tris pH 7.5, 1mM EDTA, 5mM DTT, 0.1% NP-40, 0.1M NaCl, and 50% glycerol), and stored at -70°C for further use.
The 2X concentrated stock reaction mixture is aliquoted and stored at -20°C. The mixture is stable and thawed for use in each assay. This enzyme assay has been adapted to a 96 well microtiter plate system, and has been previously described (6). Tris buffer (50 mM, pH 7.4), vehicle (solvent diluted to match the compound dilution), or compounds in vehicle are dispensed into 96-well microtiter plates (10»l/well; 3 wells/ compound). The HIV-1 RT enzyme is thawed, diluted in 50mM Tris pH 7.4 so that fifteen »l of diluted enzyme contain 0.001 Unit (one unit is that amount of enzyme to transform 1 micromole of substrate per minute at 25°C), and fifteen »l are dispensed per well. Twenty »l of 0.12-0.5M EDTA are added to the first three wells of the microtiter plate. EDTA chelates the Mg⁺⁺ present and prevents reverse transcription. This group serves as background polymerization which is subtracted from all other groups. Twenty-five ul of the 2X reaction mixture are added to all wells and the assay is allowed to incubate at room temperature for 60 minutes. The assay is terminated by precipitating the DNA in each well with 50»l of 10% trichloracetic acid (TCA) (10% w/v) in sodium pyrophosphate (1% w/v). The microtiter plate is incubated for 15 minutes at 4°C and the precipitate is fixed onto #30 glass fiber paper (Schleicher & Schuell) using a Skatron semi-automatic harvester. The filters are then washed with additional TCA (5%) containing sodium pyrophosphate (1%), rinsed with aqueous ethanol (70%), dried, and transferred to scintillation vials (6). Each vial receives 2 mls of scintillation cocktail and is counted in a Beckman beta counter.
The calculation for percent inhibition is as follows: [formula]

[1] = MTT Assay for Cellular Cytotoxicity; format: cell-based; conditions: human; H9 cells, five days incubation, MTT read at 570nm; read-out: Cytotoxicity Assay (EC₅₀)
Description: In order to roughly assess the cytotoxicity of the compounds provided by the invention, several such compounds were tested in the MTT Cellular Cytotoxicity Assay described below. Compounds having a relatively high EC₅₀ are preferred.
The MTT [3-(4,5-dimethylthiazol-2-yl)-2,5 diphenyl tetrazolium bromide) assay is based on cleavage of tetrazolium bromide by metabolically active cells, resulting in a highly quantitative blue color. This assay has been previously described (1) but has been optimized for the purposes of the testing reported herein.
The H9 cell line (2), an established human lymphoma suspension cell line grown in RPMI 1640 supplemented with 10% fetal bovine serum, is used as the target cell line in the assay. Cells (100»l) are plated in microtest plate wells at a concentration of 10⁵ cells per ml in the presence of varying concentrations of inhibitor. The cells are incubated at 37°C in a humidified CO₂ incubator. Five days later, 20»l of MTT (5mg/ml in RPMI 1640, sonicated, 0.2 micron filtered, and stored at 4°C) is added to each well. After 4 hours additional incubation at 37°C, 60»l of Triton-X is added to each well and thoroughly mixed to aid the solubilization of the crystals. Absolute ethanol (5»l) is added to each well and the resulting mixture is incubated for 30 minutes at 60°C and immediately read on a plate reader (Dynatech) at a wavelength of 570nm. […]

Row | Compound | RT Inhibition % @ 10 »g/ml (HIV-1 RT) [%] | inhibition at 1 µM (HIV-1 RT) [%] | also measured
1 | CCN1C(=O)c2cccnc2Sc2ccccc21 [Example 2, 6-Ethylpyrido[2,3-b][1,5]benzothiazepin-5(6H)-one] | 89 |  | 
2 | Cc1ccc2c(c1)Oc1ncc(N)cc1C(=O)N2C [Example 3, 3-Amino-6,9-dimethylpyrido[2,3-b][1,5]benzoxazepin-5(6H)-one] |  | 57 | CC50 at 120 h [1]: 315 µM
3 | Cc1cc(C)c2c(c1)Oc1ncc(N)cc1C(=O)N2C [Example 4, 3-Amino-6,7,9-trimethylpyrido[2,3-b][1,5]benzoxazepin-5(6H)-one] |  | 92 | 
4 | CCN1C(=O)c2cc(N)cnc2Oc2cc(C)cc(C)c21 [Example 5, 3-Amino-7,9-dimethyl-6-ethylpyrido[2,3-b][1,5]benzoxazepin-5(6H)-one] |  | 93 | 
5 | CCCN1C(=O)c2cc(N)cnc2Oc2cc(C)cc(C)c21 [Example 6, 3-Amino-7,9-dimethyl-6-(n-propyl)pyrido[2,3-b][1,5]benzoxazepin-5(6H)-one] |  | 82 | 
6 | CN1C(=O)c2cccnc2Oc2ccccc21 [Example 7, 6-Methylpyrido[2,3-b][1,5]benzoxazepin-5(6H)-one] | 71 |  | 
7 | CCC(=O)N1C(=O)c2cccnc2Oc2ccccc21 [Example 10, 6-Propionylpyrido[2,3-b][1,5]benzoxazepin-5(6H)-one] | 28 |  | 
8 | Cc1ccc2c(c1)Oc1ncc(O)cc1C(=O)N2C [Example 13, 3-Hydroxy-6,9-dimethylpyrido[2,3-b][1,5]benzoxazepin-5(6H)-one] |  |  | inhibition at 2.5 µM (HIV-1 RT; compound at 2.5 »M (footnote †), read-out: RT Inhibition % († % inh. @ 2.5 »M)): 41%
9 | CN1C(=O)c2cccnc2Sc2ccccc21 [Example 15, 6-Methylpyrido[2,3-b][1,5]benzothiazepin-5(6H)-one] | 85 |  | 

More lines, main results first:

Row | RT Inhibition % @ 10 »g/ml (HIV-1 RT) [%] | inhibition at 1 µM (HIV-1 RT) [%] | Compound | also measured
10 | 80 |  | CCCN1C(=O)c2cccnc2Oc2ccccc21 [Example 1, 6-(n-Propyl)pyrido[2,3-b][1,5]benzoxazepin-5(6H)-one] | 
11 | 77 |  | CCN1C(=O)c2cccnc2Oc2ccccc21 [Example 8, 6-Ethylpyrido[2,3-b][1,5]benzoxazepin-5(6H)-one] | 
12 | 89 |  | C=CCN1C(=O)c2cccnc2Oc2ccccc21 [Example 9, 6-Allylpyrido[2,3-b][1,5]benzoxazepin-5(6H)-one] | 
13 |  | 43 | Cc1ccc2c(c1)Oc1ncccc1C(=O)N2C [Example 11, 6,9-Dimethylpyrido[2,3-b][1,5)benzoxazepin-5(6H)-one] | 
14 |  | 67 | CCN1C(=O)c2cccnc2Oc2cc(C)ccc21 [Example 12, 6-Ethyl-9-methylpyrido[2,3-b][1,5]benzoxazepin-5(6H)-one] | 
15 |  | 33 | CCN1C(=O)c2cccnc2Oc2cccc(N)c21 [Example 14, 7-Amino-6-ethylpyrido[2,3-b][1,5]benzoxazepin-5(6H)-one] | 
